In PubChem BioAssay AID2060494 (Molecular Pharmacology Branch, DTP, NCI, 2025):

Test system: 435261-313-R-J1-PDC complex spheroid viability
Test: Anticancer human tumor 435261-313-R-J1-PDC patient-derived colon adenocarcinoma cell line growth inhibition [GQUAD]
Details: for IC50: curve of first compound; for viability, T/C: stronger effect = lower value
Procedure, shortened: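 Tumor cells were grown as complex spheroids with HUVEC endothelial cells and mesenchymal stem cells as stroma. G-quadruplex stabilizers were combined with targeted agents over half-log dilutions from near the clinical Cmax, or from 10 microM.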

[1] = second compound 0.0316 µM, first compound 0.0316 µM
[2] = second compound 0.0316 µM, first compound 0.1 µM
[3] = second compound 0.0316 µM, first compound 0.316 µM
[4] = second compound 0.0316 µM, first compound 1 µM
[5] = second compound 0.0316 µM, first compound 3.16 µM
[6] = second compound 0.0316 µM, first compound 10 µM
[7] = second compound 0.1 µM, first compound 0.0316 µM
[8] = second compound 0.1 µM, first compound 0.1 µM
[9] = second compound 0.1 µM, first compound 0.316 µM
[10] = second compound 0.1 µM, first compound 1 µM
[11] = second compound 0.1 µM, first compound 3.16 µM
[12] = second compound 0.1 µM, first compound 10 µM
[13] = second compound 0.316 µM, first compound 0.0316 µM
[14] = second compound 0.316 µM, first compound 0.1 µM
[15] = second compound 0.316 µM, first compound 0.316 µM
[16] = second compound 0.316 µM, first compound 1 µM
[17] = second compound 0.316 µM, first compound 3.16 µM
[18] = second compound 0.316 µM, first compound 10 µM
[19] = second compound 1 µM, first compound 0.0316 µM
[20] = second compound 1 µM, first compound 0.1 µM
[21] = second compound 1 µM, first compound 0.316 µM
[22] = second compound 1 µM, first compound 1 µM
[23] = second compound 1 µM, first compound 3.16 µM
[24] = second compound 1 µM, first compound 10 µM
[25] = second compound 3.16 µM, first compound 0.0316 µM
[26] = second compound 3.16 µM, first compound 0.1 µM
[27] = second compound 3.16 µM, first compound 0.316 µM
[28] = second compound 3.16 µM, first compound 1 µM
[29] = second compound 3.16 µM, first compound 3.16 µM
[30] = second compound 3.16 µM, first compound 10 µM
[31] = second compound 10 µM, first compound 0.0316 µM
[32] = second compound 10 µM, first compound 0.1 µM
[33] = second compound 10 µM, first compound 0.316 µM
[34] = second compound 10 µM, first compound 1 µM
[35] = second compound 10 µM, first compound 3.16 µM
[36] = second compound 10 µM, first compound 10 µM
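Note: spheroids exposed to the agents for seven days before readout.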
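Throughout, for viability, T/C: percent of vehicle control viability with DMSO wells as 100%.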

Compound `CCCS(=O)(=O)Nc1ccc(F)c(C(=O)c2c[nH]c3ncc(-c4ccc(Cl)cc4)cc23)c1F` + Cc1[nH]c2ccc(F)cc2c1-c1nc2c3cccnc3c3ncccc3c2[nH]1 has an IC50 (second compound 0.0316 µM) of 5200 nM, an IC50 (second compound 0.1 µM) of 4080 nM and an IC50 (second compound 0.316 µM) of 4060 nM. The IC50 (second compound 1 µM) was 3250 nM, the IC50 (second compound 3.16 µM) was under 31.6 nM and the IC50 (second compound 10 µM) was under 31.6 nM. The viability, T/C [1] was 77.2%, the viability, T/C [2] was 87.3% and the viability, T/C [3] was 109%. For the same compound, the viability, T/C [4] was 115%, the viability, T/C [5] was 78.5% and the viability, T/C [6] was 12.7%. For the same compound, the viability, T/C [7] was 60.5%, the viability, T/C [8] was 105% and the viability, T/C [9] was 116%. It also gave a viability, T/C [10] of 70.9%, a viability, T/C [11] of 62.2% and a viability, T/C [12] of 15.5%. For the same compound, the viability, T/C [13] was 66.5%, the viability, T/C [14] was 73.7% and the viability, T/C [15] was 76.7%. For the same compound, the viability, T/C [16] was 70%, the viability, T/C [17] was 59.9% and the viability, T/C [18] was 14%. It also gave a viability, T/C [19] of 41.2%, a viability, T/C [20] of 70% and a viability, T/C [21] of 40.5%. The viability, T/C [22] was 55.5%, the viability, T/C [23] was 50.8% and the viability, T/C [24] was 11.7%. It also gave a viability, T/C [25] of 30.2%, a viability, T/C [26] of 29.2% and a viability, T/C [27] of 24.5%. It also gave a viability, T/C [28] of 19.6%, a viability, T/C [29] of 28.4% and a viability, T/C [30] of 7.37%. It also gave a viability, T/C [31] of 27.2%, a viability, T/C [32] of 23% and a viability, T/C [33] of 24.6%. For the same compound, the viability, T/C [34] was 27.1%, the viability, T/C [35] was 26.1% and the viability, T/C [36] was 8.52%.
For `O=C(NO)c1cnc(N2CCN(S(=O)(=O)c3ccc4ccccc4c3)CC2)nc1` + Cc1[nH]c2ccc(F)cc2c1-c1nc2c3cccnc3c3ncccc3c2[nH]1, the IC50 (second compound 0.0316 µM) was 430 nM, the IC50 (second compound 0.1 µM) was 503 nM and the IC50 (second compound 0.316 µM) was 600 nM. For the same compound, the IC50 (second compound 1 µM) was 541 nM, the IC50 (second compound 3.16 µM) was under 31.6 nM and the IC50 (second compound 10 µM) was under 31.6 nM. It also gave a viability, T/C [1] of 72.4%, a viability, T/C [2] of 66.6% and a viability, T/C [3] of 52.3%. It also gave a viability, T/C [4] of 37.3%, a viability, T/C [5] of 0.25% and a viability, T/C [6] of 0.68%. The viability, T/C [7] was 72.8%, the viability, T/C [8] was 79.5% and the viability, T/C [9] was 62%. The viability, T/C [10] was 30.2%, the viability, T/C [11] was 0.15% and the viability, T/C [12] was 0.1%. The viability, T/C [13] was 60.8%, the viability, T/C [14] was 75.7% and the viability, T/C [15] was 65.5%. The viability, T/C [16] was 36.8%, the viability, T/C [17] was 0.27% and the viability, T/C [18] was 0.1%. For the same compound, the viability, T/C [19] was 71%, the viability, T/C [20] was 65.6% and the viability, T/C [21] was 57.6%. For the same compound, the viability, T/C [22] was 38.4%, the viability, T/C [23] was 0.35% and the viability, T/C [24] was 0.13%. For the same compound, the viability, T/C [25] was 42.5%, the viability, T/C [26] was 25.7% and the viability, T/C [27] was 27%. It also gave a viability, T/C [28] of 30.6%, a viability, T/C [29] of 0.41% and a viability, T/C [30] of 0.14%. For the same compound, the viability, T/C [31] was 29.7%, the viability, T/C [32] was 28.4% and the viability, T/C [33] was 20.8%. It also gave a viability, T/C [34] of 12.5%, a viability, T/C [35] of 0.86% and a viability, T/C [36] of 0.16%.
